Source: patent US9175007B2, “IRAK inhibitors and uses thereof” (Nimbus Iris, Inc., priority 2013, dated 2015)
Counter-ions that a name gives are not always drawn.

Biological target: T1, IRAK4 (Homo sapiens, UniProt Q9NWZ3)
T1 construct: purchased CARNA Bioscience 09-145
T1 sequence (Q9NWZ3 1-460): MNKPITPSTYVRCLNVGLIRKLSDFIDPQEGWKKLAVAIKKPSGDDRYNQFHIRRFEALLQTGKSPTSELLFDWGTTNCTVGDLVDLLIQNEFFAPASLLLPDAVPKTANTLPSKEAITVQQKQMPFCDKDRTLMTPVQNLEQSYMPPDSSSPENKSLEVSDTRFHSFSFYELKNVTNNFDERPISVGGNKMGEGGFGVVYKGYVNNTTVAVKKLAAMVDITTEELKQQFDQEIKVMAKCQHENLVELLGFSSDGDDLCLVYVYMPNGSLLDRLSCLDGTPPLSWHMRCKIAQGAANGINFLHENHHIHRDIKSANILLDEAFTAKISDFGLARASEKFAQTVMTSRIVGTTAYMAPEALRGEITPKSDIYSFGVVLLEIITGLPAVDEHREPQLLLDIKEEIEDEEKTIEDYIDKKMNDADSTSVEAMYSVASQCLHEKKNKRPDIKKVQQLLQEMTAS
Test: IRAK-4 activity inhibition assay (Caliper)
Type: biochemical
Conditions: 3.5 nM IRAK4, 37 μM ATP, 1.5 μM Peptide 8
Experimental: A 1× kinase base buffer was prepared from 50 mM HEPES, pH 7.5 and 0.0015% Brij-35. A stop buffer was prepared from 100 mM HEPES, pH 7.5, 0.015% Brij-35, 0.2% Coating Reagent #3, and 50 mM EDTA.
Test compound was diluted to 50× of the final desired highest inhibitor concentration in reaction by 100% DMSO. 100 ul of this compound dilution was transferred to a well in a 96-well plate.
Test compound was serially diluted by transferring 30 μl to 60 μl of 100% DMSO in the next well and so forth for a total of 10 concentrations. 100 μl of 100% DMSO was added to two empty wells for no compound control and no enzyme control in the same 96-well plate.
A new 96-well plate was marked as intermediate plate. 5 μl of compound serial dilution was transferred from source plate to the corresponding wells of the intermediate plate. 45 μl of 1× kinase base buffer (KB buffer) was added to each well of the intermediate plate. The intermediate plate was placed for 10 min on a shaker.
5 μl of each well was transferred from the 96-well intermediate plate to a 384-well plate in duplicates. For example, A1 of the 96-well plate is transferred to A1 and A2 of the 384-well plate. A2 of the 96-well plate is transferred to A3 and A4 of the 384-well plate, and so on.
IRAK4 and DTT in 1× kinase base buffer was added. The 2.5× enzyme mix contained 8.8 nM IRAK4 and 5 mM DTT.
Peptide 8, ATP, MgCl2 and MnCl2 were added in the 1× kinase base buffer. The 2.5× peptide mix contained 3.75 μM peptide 8, 92.5 μM ATP, 12.5 mM MgCl2 and 2.5 mM MnCl2.
Assay plate already contained 5 μl of compound in 10% DMSO. Added 10 μl of 2.5× enzyme solution to each well of the 384-well assay plate, except no enzyme control wells. The final concentration of IRAK4 in reaction was 3.5 nM. Added 10 μl of 1× kinase base buffer to no enzyme control wells in the assay plate. Incubated at room temperature for 10 min.
Added 10 μl of 2.5× peptide solution to each well of the 384-well assay plate. The final concentration of Peptide 8 and ATP was 1.5 μM and 37 μM, respectively. Incubated at 28° C. for 40 minutes. Added 25 μl of stop buffer to stop reaction. Collected data on Caliper.
Copied conversion % data from Caliper program. Converted conversion % values to percent inhibition values. Percent inhibition=(max-conversion %)/(max-min)*100, where “max” means the conversion % of DMSO control and “min” means the conversion % of no enzyme control.

IC50 [µM]	Compound
≤ 5	Cn1cc(Nc2nc(O[C@H]3CC[C@H](N(C)C)CC3)c3c4c(sc3n2)CC[C@H]4CC(N)=O)cn1 [Compound I-21, 2-[(3S)-12-[[4-(dimethylamino)cyclohexyl]oxy]-10-[(1-methyl-1H-pyrazol-4-yl)amino]-7-thia-9,11-diazatricyclo[6.4.0.0[2,6]]dodeca-1(8),2(6),9,11-tetraen-3-yl]acetamide]
≤ 5	CN1CCN(c2ccc(Nc3nc(O[C@H]4CC[C@H](N(C)C)CC4)c4c5c(sc4n3)CCC5)cc2)CC1 [Compound I-68, 12-[[4-(dimethylamino)cyclohexyl]oxy]-N-[4-(4-methylpiperazin-1-yl)phenyl]-7-thia-9,11-diazatricyclo[6.4.0.0[2,6]]dodeca-1(8),2(6),9,11-tetraen-10-amine]
≤ 5	Cn1cc(Nc2nc(N[C@H]3CC[C@H](O)CC3)c3c4c(sc3n2)CCC4)cn1 [Compound I-16, 4-([10-[(1-methyl-1H-pyrazol-4-yl)amino]-7-thia-9,11-diazatricyclo[6.4.0.0[2,6]]dodeca-1(8),2(6),9,11-tetraen-12-yl]amino)cyclohexan-1-ol]
≤ 5	CN(C)[C@H]1CC[C@H](Nc2nc(Nc3ccc(C4CCNCC4)cc3)nc3sc4c(c23)CCC4)CC1 [Compound I-71, 12-N-[4-(dimethylamino)cyclohexyl]-10-N-[4-(piperidin-4-yl)phenyl]-7-thia-9,11-diazatricyclo[6.4.0.0[2,6]]dodeca-1(8),2(6),9,11-tetraene-10,12-diamine hydrochloride]
≤ 5	CN(C)[C@H]1CC[C@H](Oc2nc(Nc3ccc(N4CCNCC4)cc3)nc3sc4c(c23)C(CC(N)=O)CC4)CC1 (stereo partly drawn) [Compound I-18, 2-(12-[[4-(dimethylamino)cyclohexyl]oxy]-10-[[4-(piperazin-1-yl)phenyl]amino]-7-thia-9,11-diazatricyclo[6.4.0.0[2,6]]dodeca-1(12),2(6),8,10-tetraen-3-yl)acetamide]
≤ 5	c1cc(C2CCNCC2)ccc1Nc1nc(N[C@H]2CC[C@H](N3CCOCC3)CC2)c2c3c(sc2n1)CCC3 [Compound I-70, 12-N-[4-(morpholin-4-yl)cyclohexyl]-10-N-[4-(piperidin-4-yl)phenyl]-7-thia-9,11-diazatricyclo[6.4.0.0[2,6]]dodeca-1(8),2(6),9,11-tetraene-10,12-diamine hydrochloride]
≤ 5	Cn1cc(Nc2nc(O[C@H]3CC[C@H](N(C)C)CC3)c3c4c(sc3n2)CCC4CC(N)=O)cn1 (stereo partly drawn) [Compound I-20, 2-(12-[[4-(dimethylamino)cyclohexyl]oxy]-10-[(1-methyl-1H-pyrazol-4-yl)amino]-7-thia-9,11-diazatricyclo[6.4.0.0[2,6]]dodeca-1(8),2(6),9,11-tetraen-3-yl)acetamide]
≤ 5	CN1CCC(c2ccc(Nc3nc(N[C@H]4CC[C@H](N(C)C)CC4)c4c5c(sc4n3)CCC5)cc2)CC1 [Compound I-67, N4-((1r,4r)-4-(dimethylamino)cyclohexyl)-N2-(4-(1-methylpiperidin-4-yl)phenyl)-6,7-dihydro-5H-cyclopenta[4,5]thieno[2,3-d]pyrimidine-2,4-diamine]
≤ 5	CN(C)[C@H]1CC[C@H](Oc2nc(Nc3ccccc3)nc3sc4c(c23)C(CC(N)=O)CC4)CC1 (stereo partly drawn) [Compound I-17, 2-(12-[[4-(dimethylamino)cyclohexyl]oxy]-10-(phenylamino)-7-thia-9,11-diazatricyclo[6.4.0.0^[2,6]]dodeca-1(12),2(6),8,10-tetraen-3-yl)acetamide]
≤ 5	CN1CCN(c2ccc(Nc3nc(N[C@H]4CC[C@H](N(C)C)CC4)c4c5c(sc4n3)CCC5)cc2)CC1 [Compound I-69, 12-N-[4-(dimethylamino)cyclohexyl]-10-N-[4-(4-methylpiperazin-1-yl)phenyl]-7-thia-9,11-diazatricyclo[6.4.0.0[2,6]]dodeca-1(8),2(6),9,11-tetraene-10,12-diamine]

Further lines, the molecule ahead of its results:

Compound	IC50 [µM]
c1ccc(Nc2nc(N[C@H]3CC[C@H](N4CCOCC4)CC3)c3c4c(sc3n2)CCCC4)cc1 [Compound I-7, 3-N-[4-(morpholin-4-yl)cyclohexyl]-5-N-phenyl-8-thia-4,6-diazatricyclo[7.4.0.0[2,7]]trideca-1(9),2,4,6-tetraene-3,5-diamine]	≤ 5
CN(C)[C@H]1CC[C@H](Oc2nc(Nc3ccc(N4CCNCC4)cc3)nc3sc4c(c23)CCC4)CC1 [Compound I-13, 12-[[4-(dimethylamino)cyclohexyl]oxy]-N-[4-(piperazin-1-yl)phenyl]-7-thia-9,11-diazatricyclo[6.4.0.0[2,6]]dodeca-1(8),2(6),9,11-tetraen-10-amine]	≤ 5
COc1cccc(Nc2nc(N[C@H]3CC[C@H](N4CCOCC4)CC3)c3c4c(sc3n2)CCC4)c1 [Compound I-5, 10-N-(3-methoxyphenyl)-12-N-[4-(morpholin-4-yl)cyclohexyl]-7-thia-9,11-diazatricyclo[6.4.0.0^[2,6]]dodeca-1(8),2(6),9,11-tetraene-10,12-diamine]	≤ 5
Cn1cc(Nc2nc(NC3CCCCC3)c3c4c(sc3n2)CCC4)cn1 [Compound I-15, 12-N-cyclohexyl-10-N-(1-methyl-1H-pyrazol-4-yl)-7-thia-9,11-diazatricyclo[6.4.0.0[2,6]]dodeca-1(8),2(6),9,11-tetraene-10,12-diamine]	≤ 5
c1coc(Nc2nc(N[C@H]3CC[C@H](N4CCOCC4)CC3)c3c4c(sc3n2)CCCC4)n1 [Compound I-8, 3-N-[4-(morpholin-4-yl)cyclohexyl]-5-N-(1,3-oxazol-2-yl)-8-thia-4,6-diazatricyclo[7.4.0.0[2,7]]trideca-1(9),2(7),3,5-tetraene-3,5-diamine]	5 to 20
c1coc(Nc2nc(N[C@H]3CC[C@H](N4CCOCC4)CC3)c3c4c(sc3n2)CCC4)n1 [Compound I-9, 12-N-[4-(morpholin-4-yl)cyclohexyl]-10-N-(1,3-oxazol-2-yl)-7-thia-9,11-diazatricyclo[6.4.0.0[2,6]]dodeca-1(8),2(6),9,11-tetraene-10,12-diamine]	5 to 20
CN1CCC(c2ccc(Nc3nc(N[C@H]4CC[C@H](N5CCOCC5)CC4)c4c5c(sc4n3)CCC5)cc2)CC1 [Compound I-10, 10-N-[4-(1-methylpiperidin-4-yl)phenyl]-12-N-[4-(morpholin-4-yl)cyclohexyl]-7-thia-9,11-diazatricyclo[6.4.0.0[2,6]]dodeca-1(8),2(6),9,11-tetraene-10,12-diamine]	≤ 5
Fc1cccc(Nc2nc(N[C@H]3CC[C@H](N4CCOCC4)CC3)c3c4c(sc3n2)CCC4)c1 [Compound I-3, N2-(3-fluorophenyl)-N4-((1r,4r)-4-morpholinocyclohexyl)-6,7-dihydro-5H-cyclopenta[4,5]thieno[2,3-d]pyrimidine-2,4-diamine]	≤ 5
c1c[nH]c(Nc2nc(N[C@H]3CC[C@H](N4CCOCC4)CC3)c3c4c(sc3n2)CCC4)n1 [Compound I-11, 10-N-(1H-imidazol-2-yl)-12-N-[4-(morpholin-4-yl)cyclohexyl]-7-thia-9,11-diazatricyclo[6.4.0.0[2,6]]dodeca-1(8),2(6),9,11-tetraene-10,12-diamine]	20 to 50
c1c[nH]c(Nc2nc(N[C@H]3CC[C@H](N4CCOCC4)CC3)c3c4c(sc3n2)CCCC4)n1 [Compound I-12, 5-N-(1H-imidazol-2-yl)-3-N-[4-(morpholin-4-yl)cyclohexyl]-8-thia-4,6-diazatricyclo[7.4.0.0[2,7]]trideca-1(9),2(7),3,5-tetraene-3,5-diamine]	20 to 50
Cc1cccc(Nc2nc(N[C@H]3CC[C@H](N4CCOCC4)CC3)c3c4c(sc3n2)CCC4)c1 [Compound I-4, N4-((1r,4r)-4-morpholinocyclohexyl)-N2-(m-tolyl)-6,7-dihydro-5H-cyclopenta[4,5]thieno[2,3-d]pyrimidine-2,4-diamine]	≤ 5
